The results in this text go back to US12071602B2, “Inductively coupled capacitor wireless sensor system for rapid antimicrobial susceptibility testing” (SYRACUSE UNIVERSITY, priority 2021, dated 2024).

This assay concerns E. coli MG1655. The assay is described as follows: LC sensor relative permittivity growth monitoring (AST), ampicillin sensitive strain. The class given is cell-based. As to conditions: 100 μg/mL ampicillin at the time of inoculation, cultured for 4 hours; observed within 30 mins; FIG. 12.

`CC1(C)S[C@@H]2[C@H](NC(=O)[C@H](N)c3ccccc3)C(=O)N2[C@H]1C(=O)O` [ampicillin]: the “growth in presence of ampicillin (relative permittivity)” value is listed as “inhibited”.
